Values quoted from earlier work, collected in patent publication US20100209368A1, “METHOD AND PREPARATION FOR TREATING BALDNESS” (priority 2009, published 2010).

What was measured:
[1] = not given; remark: listed apart in the source

Row | Compound | stability upon addition of water or ethanol (PEG or isopropyl myristate with added water or ethanol) | stability in pure solvents (pure PEG or isopropyl myristate) | solubility in ethanol ([1]; ethanol) | solubility in isopropyl myristate ([1]; isopropyl myristate) | solubility in polyethylene glycol (PEG) ([1]; polyethylene glycol) | solubility in water [1]
1 | O=C(OOC(=O)c1ccccc1)c1ccccc1 [Benzoyl peroxide, benzoyl peroxide] | greatly increased | not stable | slight solubility | soluble | soluble | low solubility
2 | zinc pyrithione | – | – | – | – | – | sparingly soluble
